One experiment concerns the target ERAP1 (Homo sapiens (Human), UniProt Q9NZ08). As to the kind of experiment: In vitro ERAP activity assay, ERAP1 with L-AMC substrate. The format is biochemical. As to conditions: L-AMC as substrate; read-out: IC50 on ERAP1 or ERAAP using L-AMC as substrate. The method, then: (§1) The enzymatic activity of ERAP1 or 2 was assayed using L-AMC (L-Leucine-7-amido-4-methylcoumarin hydrochloride) or R-AMC (L-Arginine-7-amido-4-methylcoumarin hydrochloride) respectively. Hepes at 50 mM with 100 mM NaCl at pH 7 was used as buffer. Briefly, 60 nL of test compounds were added in 384-wells plates (dark, non-binding surface) by acoustic dispensing with nanoacoustic dispenser Echo (Labcyte) and pre-incubated 30 minutes at ambient temperature with 10 μL of ERAP 0.8 μg/mL or 1 μg/mL or vehicle. The reaction was then started with the addition of 10 μL of substrate at 10 μM. The final concentration of ERAP, substrate and DMSO was 0.5 μg/mL, 5 μM and 0.4% respectively. For the kinetic readout a Victor 3V (Perkin-Elmer) was used with excitation at 380 nm and emission at 450 nm. The fluorescence was measured each 3 minutes during one hour.
(§2) The Z and Z′ factors were calculated according to J.-H. Zhang, T. D. Y. Chung, K. R. Oldenburg, A Simple Statistical Parameter for Use in Evaluation and Validation of High Throughput Screening Assays, J. Biomol. Screen., 4 (1999) 67-73. Data analysis was performed using Xlfit® v 5.0 or GraphPad Prism® v 4.0.
(§3) Percentages of inhibition at different concentrations were obtained as described above and IC50s were carried out as 8-point dose response curves and reported as the average of at least three independent measurements. […] Data analysis was performed using Xlfit® v 5.0 or GraphPad Prism® v 4.0. Nonlinear curve fitting and statistical analysis was done using built-in functions.

Another experiment concerns the target ERAP2 (Homo sapiens (Human), UniProt Q6P179). As to the kind of experiment: In vitro ERAP activity assay, ERAP2 with R-AMC substrate. The format is biochemical. Details: IC50 on ERAP2 using R-AMC as substrate: scale not given here. Conditions: for IC50 on ERAP2 using R-AMC as substrate / IC50: R-AMC as substrate; for IC50: read-out: IC50 on ERAP2 using R-AMC as substrate. The method, then: as §1, §2, §3

Usually IC50 stands for the concentration that gives 50% inhibition. As a reminder, the inhibition is the percentage by which the read-out fell short of the control.

ERAP2, sequence (Q6P179 whole entry): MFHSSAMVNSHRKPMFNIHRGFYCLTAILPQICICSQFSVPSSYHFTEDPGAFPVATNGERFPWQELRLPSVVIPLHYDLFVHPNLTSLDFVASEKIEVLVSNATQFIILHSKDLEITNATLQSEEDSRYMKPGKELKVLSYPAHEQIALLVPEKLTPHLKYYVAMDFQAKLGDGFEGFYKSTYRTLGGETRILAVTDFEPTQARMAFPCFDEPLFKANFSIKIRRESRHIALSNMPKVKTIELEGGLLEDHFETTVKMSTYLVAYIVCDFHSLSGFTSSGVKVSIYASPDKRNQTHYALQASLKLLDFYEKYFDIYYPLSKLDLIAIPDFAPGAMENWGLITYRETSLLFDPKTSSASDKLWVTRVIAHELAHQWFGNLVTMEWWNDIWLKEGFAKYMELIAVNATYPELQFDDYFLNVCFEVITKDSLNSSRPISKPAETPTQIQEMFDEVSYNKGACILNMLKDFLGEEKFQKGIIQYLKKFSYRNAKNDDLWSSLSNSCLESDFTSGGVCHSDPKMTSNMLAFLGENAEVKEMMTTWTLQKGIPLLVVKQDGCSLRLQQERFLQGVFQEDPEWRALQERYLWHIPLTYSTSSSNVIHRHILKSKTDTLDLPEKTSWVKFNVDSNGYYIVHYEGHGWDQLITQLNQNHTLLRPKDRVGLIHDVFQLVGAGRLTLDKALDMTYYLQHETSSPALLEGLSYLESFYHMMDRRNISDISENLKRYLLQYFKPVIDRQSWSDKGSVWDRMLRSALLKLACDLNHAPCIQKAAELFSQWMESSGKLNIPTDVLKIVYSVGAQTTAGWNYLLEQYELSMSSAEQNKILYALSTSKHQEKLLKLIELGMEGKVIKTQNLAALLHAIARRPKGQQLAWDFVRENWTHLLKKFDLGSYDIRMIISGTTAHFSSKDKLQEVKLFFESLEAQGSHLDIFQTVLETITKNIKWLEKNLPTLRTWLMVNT
ERAP1, sequence (Q9NZ08 whole entry): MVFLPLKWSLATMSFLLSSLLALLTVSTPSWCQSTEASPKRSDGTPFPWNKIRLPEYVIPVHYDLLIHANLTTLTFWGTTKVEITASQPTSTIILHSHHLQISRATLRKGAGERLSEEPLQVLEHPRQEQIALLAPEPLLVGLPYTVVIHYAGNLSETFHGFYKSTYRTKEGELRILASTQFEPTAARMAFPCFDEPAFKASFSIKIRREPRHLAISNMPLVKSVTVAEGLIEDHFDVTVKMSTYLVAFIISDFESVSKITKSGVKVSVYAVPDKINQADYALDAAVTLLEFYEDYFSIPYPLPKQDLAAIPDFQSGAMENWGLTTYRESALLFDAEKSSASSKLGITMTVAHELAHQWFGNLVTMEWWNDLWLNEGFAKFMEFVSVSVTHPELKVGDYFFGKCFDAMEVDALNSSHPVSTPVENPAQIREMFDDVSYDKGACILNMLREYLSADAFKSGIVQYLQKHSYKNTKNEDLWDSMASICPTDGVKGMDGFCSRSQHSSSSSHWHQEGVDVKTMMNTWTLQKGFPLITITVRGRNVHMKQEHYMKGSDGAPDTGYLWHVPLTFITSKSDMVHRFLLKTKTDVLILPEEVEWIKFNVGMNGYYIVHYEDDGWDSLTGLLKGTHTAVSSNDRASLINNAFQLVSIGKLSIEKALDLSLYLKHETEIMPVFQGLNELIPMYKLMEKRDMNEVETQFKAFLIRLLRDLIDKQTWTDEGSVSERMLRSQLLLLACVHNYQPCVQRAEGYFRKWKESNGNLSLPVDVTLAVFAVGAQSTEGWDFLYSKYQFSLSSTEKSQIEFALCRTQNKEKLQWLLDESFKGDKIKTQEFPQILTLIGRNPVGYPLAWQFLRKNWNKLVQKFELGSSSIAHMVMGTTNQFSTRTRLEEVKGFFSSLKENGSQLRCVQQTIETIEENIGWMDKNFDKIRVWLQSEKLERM

For `O=C(NO)[C@H](Cc1ccc(O)cc1)n1cc(CNS(=O)(=O)c2ccc(-c3ccccc3)s2)nn1` [Compound 10], the half-maximal inhibitory concentration (IC50) on ERAP1 was above 5 µM. In addition, the “IC50 on ERAP2 using R-AMC as substrate” value against ERAP2 is “+ +”.

For the compound `COc1ccc(C[C@@H](C(=O)NO)n2cc(CNS(=O)(=O)c3ccc(-c4ccccn4)s3)nn2)cc1OC` [Compound 41], the IC50 is below 5 µM on ERAP1 and below 0.5 µM on ERAP2. With `O=C(NO)[C@@H](Cc1ccc(O)cc1)n1cc(CNS(=O)(=O)c2ccc(-c3ccccc3)s2)nn1` [Compound 8], on ERAP1, the half-maximal inhibitory concentration (IC50) is above 5 µM. On ERAP2, the “IC50 on ERAP2 using R-AMC as substrate” value is given as “+ +”. In the case of `COc1ccc(C[C@@H](C(=O)NO)n2cc([C@@H]3CCCN3S(=O)(=O)c3ccc(-c4ccccc4)s3)nn2)cc1` [Compound 59], the IC50 at ERAP1 is below 5 µM; on ERAP2, above 5 µM. For `CNC(=O)c1cccc(-c2ccc(S(=O)(=O)NCc3cn([C@@H](Cc4ccc(OC)cc4)C(=O)NO)nn3)s2)c1` [Compound 43], the figures for the IC50 at ERAP1 and at ERAP2 were above 5 µM and below 0.5 µM, respectively. For `O=C(NO)[C@H](Cc1ccc(O)cc1)n1cc(CNS(=O)(=O)c2ccc(-c3cccnc3)s2)nn1` [Compound 29], at ERAP2, the IC50 was below 0.5 µM. For `CN(Cc1cn([C@H](CC(=O)NO)Cc2ccc(O)cc2)nn1)S(=O)(=O)c1ccc(-c2ccccc2)s1` [Compound 9], at ERAP2, the IC50 was above 5 µM. Same read-out and setting: to `O=C(NO)[C@@H](Cc1ccc(O)cc1)n1nncc1CNS(=O)(=O)c1ccc(-c2ccccc2)s1` [Compound 35] belongs above 5 µM. For the compound `Cc1ccc(S(=O)(=O)NCc2cn([C@@H](Cc3ccc(O)cc3)C(=O)NO)nn2)s1` [Compound 16], the “IC50 on ERAP2 using R-AMC as substrate” value against ERAP2 is listed as “+ +”.

Take `COc1ccc(C[C@@H](C(=O)NO)n2cc(CNS(=O)(=O)c3ccc(-c4ccncc4)s3)nn2)cc1` [Compound 36]: the values for the IC50 at ERAP1 and on ERAP2 were above 5 µM and below 0.5 µM, respectively. `CN(Cc1cn([C@@H](Cc2ccc(O)cc2)C(=O)NO)nn1)S(=O)(=O)c1ccc(-c2ccccc2)s1` [Compound 13]: at ERAP1, the IC50 was above 5 µM. In addition, the “IC50 on ERAP2 using R-AMC as substrate” value on ERAP2 is on record as “+ +”. On to `O=C(NO)[C@H](Cc1ccc2c(c1)OCO2)n1cc(CNS(=O)(=O)c2ccc(-c3ccccn3)s2)nn1` [Compound 37], for which the half-maximal inhibitory concentration (IC50) at ERAP1 is above 5 µM; on ERAP2, below 0.5 µM. As for `COc1ccc(C[C@@H](C(=O)NO)n2cc(CN(C)S(=O)(=O)c3ccc(-c4ccccn4)s3)nn2)cc1` [Compound 46], the 50% inhibitory concentration (IC50) on ERAP2 was below 0.5 µM. As to `O=C(C[C@H](Cc1ccc(O)cc1)n1nncc1CNS(=O)(=O)c1ccc(-c2ccccn2)s1)NO` [Compound 33], the IC50 on ERAP1 is above 5 µM.

Turning to `COc1cccc(C[C@@H](C(=O)NO)n2cc(CNS(=O)(=O)c3ccc(-c4ccccn4)s3)nn2)c1` [Compound 49], the 50% inhibitory concentration (IC50) is above 5 µM on ERAP1 and below 0.5 µM on ERAP2. With `CC(C)C[C@H](NC(=O)[C@@H](O)[C@H](N)Cc1ccccc1)C(=O)O` [Bestatin, reference compound], on ERAP2 (at 2 mM, ERAP1 or 2 activity assay, read-out: inhibition (reference inhibitor)), the inhibition at 2000 µM was 100%. Turning to `CN(Cc1cn([C@@H](Cc2c[nH]c3ccccc23)C(=O)NO)nn1)S(=O)(=O)c1ccc(-c2ccccc2)s1` [Compound 3], on ERAP1, the IC50 was above 5 µM. For the same compound, the “IC50 on ERAP2 using R-AMC as substrate” value at ERAP2 is “+ +”. For `O=C(C[C@H](Cc1ccc(O)cc1)n1cc(CNS(=O)(=O)c2ccc(-c3ccccc3)s2)nn1)NO` [Compound 7], the “IC50 on ERAP2 using R-AMC as substrate” value at ERAP2 is “+ +”. Regarding `O=C(C[C@@H](Cc1ccc2ccccc2c1)n1cc(CNS(=O)(=O)c2ccc(-c3ccccc3)s2)nn1)NO` [Compound 6], the IC50 at ERAP1 is above 5 µM. Besides, the “IC50 on ERAP2 using R-AMC as substrate” value on ERAP2 is “+ +”. On to `O=C(NO)[C@H](Cc1ccc(O)c(Cl)c1)n1cc(CNS(=O)(=O)c2ccc(-c3ccccc3)s2)nn1` [Compound 40], for which the IC50 on ERAP1 is above 5 µM; on ERAP2 it was below 0.5 µM. Take `O=C(C[C@@H](Cc1c[nH]c2ccccc12)n1cc(CNS(=O)(=O)c2ccc(-c3ccccc3)s2)nn1)NO` [Compound 1]: the IC50 at ERAP2 is above 5 µM. `N#Cc1ccc(C[C@@H](C(=O)NO)n2cc(CNS(=O)(=O)c3ccc(-c4ccccc4)s3)nn2)cc1` [Compound 60]: the concentration for half-maximal inhibition (IC50) on ERAP1 was below 5 µM; at ERAP2, below 0.5 µM.

Turning to `COc1ccc(C[C@@H](C(=O)NO)n2cc(CN(C3CC3)S(=O)(=O)c3ccc(-c4ccccn4)s3)nn2)cc1` [Compound 57], the IC50 at ERAP1 is above 5 µM. In addition, the “IC50 on ERAP2 using R-AMC as substrate” value on ERAP2 is given as “+ +”. With `COc1ccc(C[C@@H](C(=O)NO)n2cc(CNS(=O)(=O)c3cnc(-c4ccccc4)s3)nn2)cc1` [Compound 56], the IC50 at ERAP1 was below 5 µM; on ERAP2, below 0.5 µM. Take `COc1ccc(C[C@@H](C(=O)NO)n2cc(C3CCCCN3S(=O)(=O)c3ccc(-c4ccccc4)s3)nn2)cc1` (some centres unmarked) [Compound 58]: the IC50 on ERAP1 is below 5 µM; at ERAP2, above 5 µM. Consider `O=C(NO)[C@H](Cc1ccc(O)cc1)n1cc(CNS(=O)(=O)c2ccc(-c3ccccn3)s2)nn1` [Compound 19], for which the IC50 on ERAP1 was above 5 µM. For the same compound, the “IC50 on ERAP2 using R-AMC as substrate” value against ERAP2 was “+ +”.

For the compound `O=C(NO)[C@H](Cc1ccc(OC(F)(F)F)cc1)n1cc(CNS(=O)(=O)c2ccc(-c3ccccc3)s2)nn1` [Compound 22], the concentration for half-maximal inhibition (IC50) at ERAP2 was below 0.5 µM. For the compound `CN(Cc1cnnn1[C@H](CC(=O)NO)Cc1ccc(O)cc1)S(=O)(=O)c1ccc(-c2ccccc2)s1` [Compound 32], the “IC50 on ERAP2 using R-AMC as substrate” value against ERAP2 is recorded as “+ +”.

Consider `C#Cc1ccc(C[C@@H](C(=O)NO)n2cc(CNS(=O)(=O)c3ccc(-c4ccccc4)s3)nn2)cc1` [Compound 54], for which the values for the IC50 on ERAP1 and at ERAP2 were below 5 µM and below 0.5 µM, respectively. With `COCCOc1ccc(C[C@@H](C(=O)NO)n2cc(CNS(=O)(=O)c3ccc(-c4ccccn4)s3)nn2)cc1` [Compound 51], on ERAP2, the IC50 is below 0.5 µM. Consider `O=C(NO)[C@H](Cc1ccc(O)c(Cl)c1)n1cc(CNS(=O)(=O)c2ccc(-c3ccccn3)s2)nn1` [Compound 39], for which the IC50 is below 5 µM at ERAP1 and below 0.5 µM on ERAP2. On to `O=C(NO)[C@H](Cc1ccc(O)cc1)n1nncc1CNS(=O)(=O)c1ccc(-c2ccccc2)s1` [Compound 34], for which the “IC50 on ERAP2 using R-AMC as substrate” value at ERAP2 is recorded as “+ +”.

Take `COc1ccc(C[C@@H](C(=O)NO)n2cc(CNS(=O)(=O)c3ccc(-c4ccccc4)s3)nn2)cc1OC` [Compound 42]: the IC50 on ERAP1 and at ERAP2 was below 0.5 µM throughout. Take `COc1ccc(C[C@@H](C(=O)NO)n2cc(CNS(=O)(=O)c3ccc(-c4cccnc4)s3)nn2)cc1` [Compound 38]: the IC50 on ERAP2 is below 0.5 µM. Same read-out and setting: to `CC(C)(C)Oc1ccc(C[C@@H](C(=O)NO)n2cc(CNS(=O)(=O)c3ccc(-c4ccccn4)s3)nn2)cc1` [Compound 27] belongs below 0.5 µM; to `CC(C)(C)Oc1ccc(C[C@@H](C(=O)NO)n2cc(CNS(=O)(=O)c3ccc(-c4ccccc4)s3)nn2)cc1` [Compound 26], below 0.5 µM.

`O=C(NO)[C@H](Cc1ccc(O)cc1)n1cc(CNS(=O)(=O)c2ccc(Br)s2)nn1` [Compound 14]: on ERAP1, the concentration for half-maximal inhibition (IC50) was above 5 µM. The “IC50 on ERAP2 using R-AMC as substrate” value on ERAP2 is “+ +”. As for `O=C(C[C@H](Cc1ccc(O)cc1)n1nncc1CNS(=O)(=O)c1ccc(-c2ccccc2)s1)NO` [Compound 31], the “IC50 on ERAP2 using R-AMC as substrate” value at ERAP2 is “+ +”.

With `O=C(NO)[C@H](Cc1ccc(O)cc1)n1cc(CNS(=O)(=O)c2sccc2Br)nn1` [Compound 18], the “IC50 on ERAP2 using R-AMC as substrate” value against ERAP2 was “+ +”.

With `O=C(NO)[C@H](Cc1ccc(O)c(F)c1)n1cc(CNS(=O)(=O)c2ccc(-c3ccccn3)s2)nn1` [Compound 44], the IC50 at ERAP1 was above 5 µM; on ERAP2, below 0.5 µM.

With `O=C(NO)[C@H](Cc1c[nH]c2ccccc12)n1cc(CNS(=O)(=O)c2ccc(-c3ccccc3)s2)nn1` [Compound 4], the half-inhibitory concentration (IC50) at ERAP1 and on ERAP2 was above 5 µM throughout. Take `COc1ccc(C[C@@H](C(=O)NO)n2cc([C@H](C)NS(=O)(=O)c3ccc(-c4ccccn4)s3)nn2)cc1` [Compound 47]: the IC50 on ERAP2 was below 0.5 µM. In the case of `O=C(C[C@@H](Cc1c[nH]c2ccccc12)n1nncc1CNS(=O)(=O)c1ccc(-c2ccccc2)s1)NO` [Compound 30], the IC50 at ERAP2 was above 5 µM. Regarding `O=C(NO)[C@H](Cc1ccc(OC(F)(F)F)cc1)n1cc(CNS(=O)(=O)c2ccc(-c3ccccn3)s2)nn1` [Compound 21], the IC50 at ERAP2 is below 0.5 µM. Turning to `COc1ccc(C[C@@H](C(=O)NO)n2cc([C@@H](C)NS(=O)(=O)c3ccc(-c4ccccn4)s3)nn2)cc1` [Compound 48], the IC50 on ERAP2 is below 5 µM.

For the compound `COc1ccc(C[C@@H](C(=O)NO)n2cc(CNS(=O)(=O)c3ccc(-c4ccccc4)s3)nn2)cc1` [Compound 24], at ERAP1, the IC50 was above 5 µM. As for `CNC(=O)c1ccc(-c2ccc(S(=O)(=O)NCc3cn([C@@H](Cc4ccc(O)cc4)C(=O)NO)nn3)s2)cc1` [Compound 11], at ERAP2, the “IC50 on ERAP2 using R-AMC as substrate” value is recorded as “+ +”.

For the compound `COc1ccccc1C[C@@H](C(=O)NO)n1cc(CNS(=O)(=O)c2ccc(-c3ccccn3)s2)nn1` [Compound 50], at ERAP2, the IC50 was above 5 µM.

Values taken from patent US20240101542A1, “ERAP INHIBITORS” (UNIVERSITE DE LILLE, priority 2020, published 2024).
